# Measurements from patent publication US10308615B2, “Heterocyclic compounds as inhibitors of Vanin-1 enzyme” (Pfizer Inc., priority 2015, dated 2019).
# What was measured:
# human vanin-1 [1] = target: T1, human vanin-1 (Homo sapiens (Human), UniProt O95497); assay: Human Vanin-1 Enzyme Assay 1; assay type: biochemical; conditions: 25 pM human vanin-1, 50 uM pantetheine 7-amino-4-trifluoromethylcoumarin, 30 min preincubation, 60 min
# Description: Human Vanin-1 Enzyme Assay 1.
# (§1) The in vitro assay measures enzymatic cleavage of the fluorescently-labeled vanin substrate, pantetheine 7-amino-4-trifluoromethylcoumarin, by human vanin-1.
# (§2) The vanin-1 protein was prepared in-house from a construct expressing the extracellular domain of human vanin-1 (GenBank ID NM_004666) preceded N-terminally by the honey bee melittin signal peptide, a GSG linker sequence, a His6X tag and a FLAG tag. The secreted, soluble enzyme was purified from the conditioned medium from a CHO cell line stably expressing the resulting protein. Enzyme purification was performed through sequential Ni NTA and size-exclusion chromatography steps.
# The test inhibitors were solubilized in DMSO to a stock concentration of 30 mM. On the day of the assay, dose response plates were prepared by diluting the inhibitors in DMSO at compound concentration 200-fold the final in-assay concentration. Intermediate concentrations were prepared by diluting in DMSO in a four-fold series for a total of 11 data points.
# To prepare a working solution of human vanin-1, the enzyme was diluted to 33.3 pM in the assay buffer consisting of 50 mM Tris-HCl pH=8.0, 50 mM KCl, 0.005% Brij-35 and […] cysteamine. To begin the assay 100 nL was transferred from the compound plate to the assay plate. Next, 15 μL of the vanin-1 working solution were transferred to the assay plate. The inhibitor and enzyme were incubated at room temperature for 30 minutes. The enzyme reaction was then initiated by the addition of 5 μL of 200 μM pantetheine 7-amino-4-trifluoromethylcoumarin prepared in assay buffer. The final concentrations in the assay were 25 pM human vanin-1 and 50 uM substrate. The final concentration of DMSO was 0.5%. The assay plates were incubated for 60 minutes and before they were read on a Perkin Elmer EnVision Model 2103 using a 405 nm excitation wavelength and a 510 nm emission wavelength for detection.
# human vanin-1 [2] = target: T1, human vanin-1; assay: Human Vanin-1 Enzyme Assay 3; assay type: biochemical; conditions: 2 nM human vanin-1, 10 uM substrate, 15 min
# Description: Human Vanin-1 Enzyme Assay 3.
# as §1, §2
# On the day of the assay, dose response plates were prepared by diluting the inhibitors in DMSO at compound concentration 100-fold the final in-assay concentration. Concentration series were prepared by serially diluting in DMSO in a two-fold series for a total of 11 data points. Intermediate compound plates containing compound in 10% DMSO were then created by diluting the compounds 10-fold in assay buffer consisting of 50 mM Tris-HCl pH=8.0, 50 mM KCl, 0.005% Brij-35 and 1.5 mM cysteamine. To begin the assay 3 μL were transferred from the intermediate compound plate to the assay plate.
# A working solution of human vanin-1 was prepared by diluting the enzyme stock to 2.5 nM in assay buffer. Next, 24 μL of the vanin-1 working solution were transferred to the assay plate. The enzyme reaction was then initiated by the addition of 3 μL of 100 μM pantetheine 7-amino-4-trifluoromethylcoumarin prepared in 5 uM acetic acid. The final concentrations in the assay were 2 nM human vanin-1 and 10 uM substrate. The final concentration of DMSO was 1%. The assay plates were incubated at room temperature for 15 minutes and before they were read on a Tecan Safire using a 405 nm excitation wavelength and a 505 nm emission wavelength for detection.
# T1 sequence (O95497 22-491): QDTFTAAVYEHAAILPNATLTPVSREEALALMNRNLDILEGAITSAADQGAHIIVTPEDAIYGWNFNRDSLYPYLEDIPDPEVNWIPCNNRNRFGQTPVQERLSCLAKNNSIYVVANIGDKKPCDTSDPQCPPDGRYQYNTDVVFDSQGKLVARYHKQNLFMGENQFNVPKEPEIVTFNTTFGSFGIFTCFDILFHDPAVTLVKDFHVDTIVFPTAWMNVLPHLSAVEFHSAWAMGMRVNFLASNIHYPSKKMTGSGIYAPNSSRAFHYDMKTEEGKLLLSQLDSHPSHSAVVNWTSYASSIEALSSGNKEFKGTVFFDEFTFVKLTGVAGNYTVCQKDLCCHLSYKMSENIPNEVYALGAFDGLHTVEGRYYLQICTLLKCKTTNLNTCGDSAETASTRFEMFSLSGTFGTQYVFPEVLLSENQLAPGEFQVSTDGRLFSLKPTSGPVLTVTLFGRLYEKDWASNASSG
IC50 (human vanin-1 [1]) [nM],IC50 (human vanin-1 [2]) [nM],Structure (SMILES)
15100,348,"COc1ccc(CNc2ncc(C(=O)c3ccc(C#N)cc3)cn2)cc1 [Example 79, 4-({2-[(4-methoxybenzyl)amino]pyrimidin-5-yl}carbonyl) benzonitrile]"
14700,758,"O=C(c1cccc(Cl)c1)c1ccc(NCc2ccccc2)nn1 [Example 86, [6-(benzylamino)pyridazin-3-yl](3-chlorophenyl) methanone]"
2200,987,"N#Cc1ccc(CNc2ncc(C(=O)c3cc(F)cc(C(F)(F)F)c3)cn2)cc1 [Example 94, 4-[({5-[3-fluoro-5-(trifluoromethyl)benzoyl]pyrimidin-2-yl}amino)methyl] benzonitrile]"
3950,36.2,"O=C(c1cnc(NCc2ccc(F)cc2)nc1)c1cc(F)cc(C(F)(F)F)c1 [Example 127, {2-[(4-fluorobenzyl)amino]pyrimidin-5-yl}[3-fluoro-5-(trifluoromethyl)phenyl]methanone]"
4270,808,"COc1ccc(CNc2ncc(C(=O)c3ccc(F)c(F)c3)cn2)cc1 [Example 41, (3,4-difluorophenyl){2-[(4-methoxybenzyl)amino]pyrimidin-5-yl}methanone]"
150,> 123,"N#Cc1cccc(CNc2ncc(C(=O)c3cccc(C(F)(F)F)c3)cn2)c1 [Example 62, 3-[({5-[3-(trifluoromethyl)benzoyl]pyrimidin-2-yl}amino)methyl] benzonitrile]"
1680,537,"O=C(c1ccccc1)c1cnc(NCc2ccccc2)nc1 [Example 99, [2-(benzylamino)pyrimidin-5-yl](phenyl) methanone]"
2150,154,"O=C(c1cnc(NCc2ccccc2)nc1)c1cc(F)cc(C(F)(F)F)c1 [Example 93, [2-(benzylamino)pyrimidin-5-yl][3-fluoro-5-(trifluoromethyl)phenyl]methanone]"
> 5130,> 729,"O=C(c1cnc(OCc2ccc(Cl)cc2)nc1)c1cccc(C(F)(F)F)c1 [Example 47, {2-[(4-chlorobenzyl)oxy]pyrimidin-5-yl}[3-(trifluoromethyl)phenyl]methanone]"
93.3,43.7,"O=C(c1cnc(NCc2cccnc2)nc1)c1ccc(F)c(F)c1 [Example 22, (3,4-difluorophenyl){2-[(pyridin-3-ylmethyl)amino]pyrimidin-5-yl}methanone]"
2220,490,"NC(=O)c1ccc(CNc2ncc(C(=O)c3ccc(F)c(F)c3)cn2)cc1 [Example 43, 4-({[5-(3,4-difluorobenzoyl)pyrimidin-2-yl]amino}methyl) benzamide]"
29.4,46.8,"NC(=O)c1ccc(CNc2ncc(C(=O)c3cccc(C(F)(F)F)c3)cn2)cn1 [Example 69, 5-[({5-[3-(trifluoromethyl)benzoyl]pyrimidin-2-yl}amino)methyl] pyridine-2-carboxamide]"
467,660,"Cc1cccc(C(=O)c2cnc(NCc3ccncc3)nc2)c1 [Example 39, (3-methylphenyl){2-[(pyridin-4-ylmethyl)amino]pyrimidin-5-yl}methanone]"
11900,6900,"CCN1CCCC1CNc1ncc(C(=O)c2cccc(C(F)(F)F)c2)cn1 (stereo not drawn) [Example 165, (2-{[(1-ethylpyrrolidin-2-yl)methyl]amino}pyrimidin-5-yl)[3-(trifluoromethyl)phenyl]methanone]"
> 20000,> 213,"O=C(c1cnc(OCc2ccc(F)cc2)nc1)c1cccc(C(F)(F)F)c1 [Example 46, {2-[(4-fluorobenzyl)oxy]pyrimidin-5-yl}[3-(trifluoromethyl)phenyl]methanone]"
3.4,> 16.9,"O=C(c1cnc(NCc2cccnc2)nc1)c1ccc(F)c(C(F)(F)F)c1 [Example 81, [4-fluoro-3-(trifluoromethyl)phenyl]{2-[(pyridin-3-ylmethyl)amino]pyrimidin-5-yl}methanone]"

IC50 (human vanin-1 [1]) [nM],IC50 (human vanin-1 [2]) [nM],Structure (SMILES)
1130,52.8,"O=C(c1cnc(NCc2ccc(F)cc2)nc1)c1ccc(F)c(C(F)(F)F)c1 [Example 85, {2-[(4-fluorobenzyl)amino]pyrimidin-5-yl}[4-fluoro-3-(trifluoromethyl)phenyl]methanone]"
99.2,74.4,"N#Cc1cccc(CNc2ncc(C(=O)c3cccc(C#N)c3)cn2)c1 [Example 64, 3-({[5-(3-cyanobenzoyl)pyrimidin-2-yl]amino}methyl) benzonitrile]"
140,77.8,"NC(=O)c1ccc(CNc2ncc(C(=O)c3ccc(F)c(C(F)(F)F)c3)cn2)cn1 [Example 70, 5-[({5-[4-fluoro-3-(trifluoromethyl)benzoyl]pyrimidin-2-yl}amino)methyl] pyridine-2-carboxamide]"
508,105,"CC(C)(Nc1ncc(C(=O)c2ccc(F)c(F)c2)cn1)c1ccccc1 [Example 44, (3,4-difluorophenyl){2-[(2-phenylpropan-2-yl)amino]pyrimidin-5-yl}methanone]"
> 20000,566,"O=C(c1cccc(C(F)(F)F)c1)c1ccc(NCc2ccc(F)cc2F)nn1 [Example 92, {6-[(2,4-difluorobenzyl)amino]pyridazin-3-yl}[3-(trifluoromethyl)phenyl]methanone]"
14.2,415,"CS(=O)(=O)c1cccc(C(=O)c2cnc(NCc3ccc(F)cc3)nc2)c1 [Example 96, {2-[(4-fluorobenzyl)amino]pyrimidin-5-yl}[3-(methylsulfonyl)phenyl]methanone]"
4170,63.2,"N#Cc1cccc(CNc2ncc(C(=O)c3cccc(Cl)c3)cn2)c1 [Example 26, 3-({[5-(3-chlorobenzoyl)pyrimidin-2-yl]amino}methyl) benzonitrile]"
384,30.1,"O=C(c1cnc(NCc2ccccn2)nc1)c1ccc(F)c(C(F)(F)F)c1 [Example 80, [4-fluoro-3-(trifluoromethyl)phenyl]{2-[(pyridin-2-ylmethyl)amino]pyrimidin-5-yl}methanone]"
804,150,"O=C(c1ccccc1)c1cnc(NCc2ccccc2F)nc1 [Example 101, {2-[(2-fluorobenzyl)amino]pyrimidin-5-yl}(phenyl) methanone]"
7430,86.4,"O=C(c1cccc(C(F)(F)F)c1)c1ccc(NCc2ccccc2)nn1 [Example 90, [6-(benzylamino)pyridazin-3-yl][3-(trifluoromethyl)phenyl]methanone]"
18600,9.3,"COc1ccc(CNc2ccc(C(=O)c3cccc(C(F)(F)F)c3)nn2)cc1 [Example 88, {6-[(4-methoxybenzyl)amino]pyridazin-3-yl}[3-(trifluoromethyl)phenyl]methanone]"
503,111,"N#Cc1ccc(CNc2ncc(C(=O)c3ccc(F)c(C(F)(F)F)c3)cn2)cc1 [Example 84, 4-[({5-[4-fluoro-3-(trifluoromethyl)benzoyl]pyrimidin-2-yl}amino)methyl] benzonitrile]"
242,20.5,"O=C(c1cnc(NCc2ccccc2)nc1)c1cccc(C(F)(F)F)c1 [Example 35, [2-(benzylamino)pyrimidin-5-yl][3-(trifluoromethyl)phenyl]methanone]"
> 20000,687,"N#Cc1ccc(C(=O)c2cnc(NCc3ccc(F)cc3)nc2)cc1 [Example 78, 4-({2-[(4-fluorobenzyl)amino]pyrimidin-5-yl}carbonyl) benzonitrile]"
1060,709,"Cc1cccc(C(=O)c2cnc(NCc3ccc(C#N)cc3)nc2)c1 [Example 42, 4-({[5-(3-methylbenzoyl)pyrimidin-2-yl]amino}methyl) benzonitrile]"
,36.2,"O=C(c1cnc(NCc2ccncc2)nc1)c1cccc(C(F)(F)F)c1 [Example 56, {2-[(pyridin-4-ylmethyl)amino]pyrimidin-5-yl}[3-(trifluoromethyl)phenyl]methanone]"
